According to ChEMBL document CHEMBL1127001, “Novel sigma receptor ligands 2” (Bioorg Med Chem Lett, 1993):

What was measured:
D(2) dopamine receptor = D(2) dopamine receptor (Homo sapiens, UniProt P14416); assay: Binding affinity towards dopamine D2 receptor using radiolabeled ligand [3H]spiperone
Glutamate NMDA receptor = assay: Binding affinity towards PCP receptor in rat brain membrane using radiolabeled ligand [3H]TCP (1-[1-(2-thienyl)cyclohexyl]piperidine) was determined; format: cell membranes
[1] = target: T1, Sigma non-opioid intracellular receptor 1 (Homo sapiens, UniProt Q99720); assay: Binding affinity towards sigma receptor using radiolabeled ligand [3H]-(+)-SKF- 10,047 was determined
[2] = target: T1, Sigma non-opioid intracellular receptor 1; assay: Binding affinity for sigma receptor using [3H]-(+)-SKF- 10,047
[3] = Binding affinity towards dopamine D2 receptor using radiolabeled ligand [3H]spiperone

T1 sequence (Q99720 whole entry): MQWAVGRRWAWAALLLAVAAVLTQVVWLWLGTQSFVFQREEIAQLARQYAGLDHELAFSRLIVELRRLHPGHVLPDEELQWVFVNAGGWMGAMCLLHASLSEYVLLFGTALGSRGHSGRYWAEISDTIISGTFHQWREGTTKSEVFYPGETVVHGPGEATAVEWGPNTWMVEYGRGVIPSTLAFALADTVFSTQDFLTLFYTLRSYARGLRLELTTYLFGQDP
Chain of D(2) dopamine receptor (P14416 whole entry): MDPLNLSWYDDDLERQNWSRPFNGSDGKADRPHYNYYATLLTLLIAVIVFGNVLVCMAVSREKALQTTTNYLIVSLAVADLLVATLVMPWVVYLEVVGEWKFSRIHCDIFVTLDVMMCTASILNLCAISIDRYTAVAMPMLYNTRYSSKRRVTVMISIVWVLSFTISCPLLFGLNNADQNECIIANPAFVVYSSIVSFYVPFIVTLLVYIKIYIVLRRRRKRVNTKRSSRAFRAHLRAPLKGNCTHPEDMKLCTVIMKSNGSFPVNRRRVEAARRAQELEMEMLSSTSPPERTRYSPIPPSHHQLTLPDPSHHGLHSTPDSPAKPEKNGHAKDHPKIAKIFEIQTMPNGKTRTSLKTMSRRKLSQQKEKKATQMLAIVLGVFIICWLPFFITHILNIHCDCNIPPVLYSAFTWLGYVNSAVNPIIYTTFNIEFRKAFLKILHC

| SMILES | Ki (D(2) dopamine receptor) | Ki (Glutamate NMDA receptor) | Ki [1] | Ki [2] | Ki [3] |
| --- | --- | --- | --- | --- | --- |
| O=C1C[C@]2(CC[C@@H](OCc3ccccc3)CC2)OC=C1c1ccccc1 | > 10000 nM | > 10000 nM | – | – | – |
| O=C1C[C@]2(CC[C@H](OCc3ccccc3)CC2)OC=C1c1ccccc1 | > 10000 nM | > 10000 nM | – | – | – |
| O=C1CC2(CCN(CCc3ccccc3)CC2)OC=C1c1ccccc1 | 2030 nM | > 10000 nM | 5 nM | – | – |
| O=C1CC2(CCN(CCc3ccccc3)CC2)OCC1c1ccc(F)cc1 (stereo not drawn) | 1530 nM | 14000 nM | – | – | – |
| CN1CCC2(CC1)CC(=O)C(c1ccccc1)=CO2 | > 100000 nM | – | – | 6880 nM | – |
| O=C1C=C(c2ccccc2)OC2(CCN(CCc3ccccc3)CC2)C1 | 4200 nM | – | – | 10 nM | – |
| O=C1CC2(CCN(CCc3ccccc3)CC2)OC=C1c1ccccc1F | 2330 nM | 30000 nM | 1 nM | – | – |
| O=C1C=C(c2ccco2)OC2(CCN(CCc3ccccc3)CC2)C1 | 7600 nM | – | – | 70 nM | – |
| O=C1CC2(CCN(CCc3ccccc3)CC2)OC=C1c1ccc(F)cc1 | 2900 nM | 1690 nM | 6 nM | – | – |
| O=C1CC2(CCN(CCc3ccccc3)CC2)OC=C1c1cccs1 | 1080 nM | – | – | 7 nM | – |
| CN1CCC2(CC1)CC(=O)C(c1ccc(F)cc1)=CO2 | > 100000 nM | – | – | 7300 nM | – |
| O=C1CC2(CN3CCC2CC3)OC=C1c1ccccc1 (stereo not drawn) | > 10000 nM | – | – | 1590 nM | – |
| O=C1CC2(CCN(Cc3ccccc3)CC2)OC=C1c1ccccc1 | 1460 nM | – | – | – | – |
| COc1ccc(C2=COC3(CCN(CCc4ccccc4)CC3)CC2=O)cc1 | 1500 nM | – | – | 30 nM | – |
| CCN(CC)CCCC1(C)CC(=O)C(c2ccccc2)=CO1 (single isomer, unassigned; (-)) | > 10000 nM | > 10000 nM | 34 nM | – | – |
| CN1C2CCC1CC1(CC(=O)C(c3ccccc3)=CO1)C2 (single isomer, unassigned; (-)) | > 10000 nM | – | – | 1830 nM | – |
| O=C1C(c2ccc(F)cc2)COC12CCN(Cc1ccccc1)CC2 (single isomer, unassigned; (-)) | – | 2230 nM | – | – | 47 nM |
| CN(C)CC1(C)CC(=O)C(c2ccccc2)=CO1 (single isomer, unassigned; (-)) | 4100 nM | – | – | 352 nM | – |
| O=C1CC2(CCCN(Cc3ccccc3)C2)OC=C1c1ccccc1 (single isomer, unassigned; (-)) | – | – | – | 13 nM | – |
| O=C1CC2(CCCN(Cc3ccccc3)C2)OC=C1c1ccc(F)cc1 (single isomer, unassigned; (-)) | 8780 nM | > 10000 nM | 131 nM | – | – |
